Test results taken from patent US6337328B1, “Bupropion metabolites and methods of use” (priority 1999, dated 2002).
Values joined by “and” are separate entries in the source; they are usually repeats but may differ in a detail not shown here. Identical values can stand only once.

What was measured:
Type in all cases: biochemical
[1] = target: T1, norepinephrine (NE) reuptake, rat hypothalamus (Rattus norvegicus, UniProt Q63380); assay: Inhibition of norepinephrine (NE) reuptake, [3H]NE incorporation into synaptosomes; settings: for NE reuptake Hill coefficient (nH): Hill equation curve fitting; for IC50: [3H]NE 0.2 μCi/mL, 20 min/37° C.
T1 construct: using rat hypothalamus as a tissue source; from tissue; host or cells: rat hypothalamus synaptosomes
T1 sequence (Q63380 1-617): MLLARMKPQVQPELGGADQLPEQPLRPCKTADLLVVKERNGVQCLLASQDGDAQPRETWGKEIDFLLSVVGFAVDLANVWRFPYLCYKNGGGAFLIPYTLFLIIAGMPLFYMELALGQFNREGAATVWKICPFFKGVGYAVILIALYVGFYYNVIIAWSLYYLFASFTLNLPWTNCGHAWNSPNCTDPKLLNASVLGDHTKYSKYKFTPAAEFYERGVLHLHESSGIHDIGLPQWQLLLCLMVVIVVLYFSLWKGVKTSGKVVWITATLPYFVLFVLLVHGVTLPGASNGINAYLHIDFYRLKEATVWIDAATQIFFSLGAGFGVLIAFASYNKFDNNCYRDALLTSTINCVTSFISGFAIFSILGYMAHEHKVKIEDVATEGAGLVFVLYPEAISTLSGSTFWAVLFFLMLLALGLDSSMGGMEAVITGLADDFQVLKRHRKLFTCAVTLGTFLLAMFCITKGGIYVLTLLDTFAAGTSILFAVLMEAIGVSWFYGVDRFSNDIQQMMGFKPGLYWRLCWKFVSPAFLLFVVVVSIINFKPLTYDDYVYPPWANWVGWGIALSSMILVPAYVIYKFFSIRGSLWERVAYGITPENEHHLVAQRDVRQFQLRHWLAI
Protocol: (§1) Bupropion metabolites can be screened for their ability to inhibit the reuptake of the neuronal monoamines norepiniephrine (NE), dopaminc (DA), and serotonin (5-HT). […] Other assays known to those skilled in the art may also be used.
(§2) Inhibition of norepincphrinie (NE) reuptake was determined using rat hypothalamus as a tissue source and protryptiline as a reference compound. […] Inhibition of serotonin (5-HT) reuptake was determined using rat brain as a tissue source and imipramine as a reference compound.
(§3) wherein the end products observed were formed by the incorporation of [^3H]NE, [^3H]DA, and [^3H]5-HT into synaptosomes. Radioactivity was determined with a scintillation counter (Topcount, Packard) using a liquid scintillation cocktail (Microscint 0, Packard).
(§4) Raceinic bupropion and the bupropion metabolites were first tested in each assay at 10 μM in duplicate or triplicate. […] In each experiment, the respective reference compound was tested at eight concentrations in duplicate to obtain an inhibition curve in order to validate this experiment.
(§5) IC50 values and Hill coefficients (nH) were determined for the reference compounds and the test compounds (i.e., bupropion and metabolites of bupropion) by non-linear regression analysis of their inhibition curves. These parameters were obtained by Hill equation curve fitting.

[2] = target: T2, dopamine (DA) reuptake, rat corpora striata (Rattus norvegicus, UniProt P23977); assay: Inhibition of dopamine (DA) reuptake, [3H]DA incorporation into synaptosomes; settings: for DA reuptake Hill coefficient (nH): Hill equation curve fitting; for IC50: [3H]DA 0.2 μCi/mL, 15 min/37° C.
T2 construct: using rat corpora striata as a tissue source; from tissue; host or cells: rat corpora striata synaptosomes
T2 sequence (P23977 whole entry): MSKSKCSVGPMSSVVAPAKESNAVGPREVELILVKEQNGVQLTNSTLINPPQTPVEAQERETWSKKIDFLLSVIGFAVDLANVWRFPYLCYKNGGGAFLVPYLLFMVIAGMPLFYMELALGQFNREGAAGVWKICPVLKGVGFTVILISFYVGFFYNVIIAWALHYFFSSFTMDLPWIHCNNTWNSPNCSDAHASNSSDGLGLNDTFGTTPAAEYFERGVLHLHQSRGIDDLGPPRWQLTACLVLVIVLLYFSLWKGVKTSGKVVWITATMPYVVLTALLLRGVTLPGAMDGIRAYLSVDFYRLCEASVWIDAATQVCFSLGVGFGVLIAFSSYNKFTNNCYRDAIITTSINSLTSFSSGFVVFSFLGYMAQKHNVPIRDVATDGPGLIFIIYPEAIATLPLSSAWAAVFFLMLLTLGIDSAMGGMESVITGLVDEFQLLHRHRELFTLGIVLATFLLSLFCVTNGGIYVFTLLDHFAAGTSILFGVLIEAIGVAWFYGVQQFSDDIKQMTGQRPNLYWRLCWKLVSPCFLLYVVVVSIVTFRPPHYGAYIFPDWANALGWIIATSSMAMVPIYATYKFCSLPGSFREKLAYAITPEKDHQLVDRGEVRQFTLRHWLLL
Protocol: as §1, §2, §3, §4, §5

[3] = target: T3, serotonin (5-HT) reuptake, rat brain (Rattus norvegicus, UniProt P31652); assay: Inhibition of serotonin (5-HT) reuptake, [3H]5-HT incorporation into synaptosomes; settings: [3H]5-HT 0.2 μCi/mL, 15 min/37° C., first tested at 10 μM
T3 construct: using rat brain as a tissue source; from tissue; host or cells: rat brain synaptosomes
T3 sequence (P31652 whole entry): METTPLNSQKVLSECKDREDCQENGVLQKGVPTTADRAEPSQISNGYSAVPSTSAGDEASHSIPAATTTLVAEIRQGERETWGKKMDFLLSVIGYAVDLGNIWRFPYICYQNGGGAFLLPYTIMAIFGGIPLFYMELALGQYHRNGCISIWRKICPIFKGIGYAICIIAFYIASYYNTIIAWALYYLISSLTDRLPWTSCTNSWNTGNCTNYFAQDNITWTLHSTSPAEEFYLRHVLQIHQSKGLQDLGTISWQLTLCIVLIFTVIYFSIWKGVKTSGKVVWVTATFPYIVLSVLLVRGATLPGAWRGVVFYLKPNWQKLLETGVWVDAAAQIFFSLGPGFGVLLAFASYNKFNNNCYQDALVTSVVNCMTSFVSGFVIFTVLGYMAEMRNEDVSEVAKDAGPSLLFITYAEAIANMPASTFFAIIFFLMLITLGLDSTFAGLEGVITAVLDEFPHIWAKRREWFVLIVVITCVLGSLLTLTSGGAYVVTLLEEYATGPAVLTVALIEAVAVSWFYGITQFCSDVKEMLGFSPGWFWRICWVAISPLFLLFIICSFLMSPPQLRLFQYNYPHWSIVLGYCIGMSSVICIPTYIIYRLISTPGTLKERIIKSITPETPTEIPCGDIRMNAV
Protocol: as §1, §2, §3, §4, §5

SMILES	NE reuptake Hill coefficient (nH) [1]	IC50 [1]	DA reuptake Hill coefficient (nH) [2]	IC50 [2]	Inhibition of dopamine reuptake (in words) [2]	IC50 ([2]; listed as (S,S)-hydroxybupropion)	Inhibition of 5-HT reuptake (in words) [3]
CC(NC(C)(C)C)C(=O)c1cccc(Cl)c1 (racemic) [BP(±), (±)1-(3-chlorophenyl)-2-[(1,1-dimethylethyl)amino]-1-propanone, reference compound]	(>3)	~746 nM and 746 nM	(0.9)	~294 nM and 294 nM	–	–	–
CC1NC(C)(C)COC1(O)c1cccc(Cl)c1 (racemic) [HBP(RS, RS), (RS,RS)-2-(3-chlorophenyl)-2-hydroxy-3,5,5-trimethyl-morpholinol]	(1.1)	756 nM	–	–	–	–	–
C[C@@H]1NC(C)(C)CO[C@@]1(O)c1cccc(Cl)c1 [HBP(S, S)]	(0.8)	229 nM	(1.0)	1400 nM	does not significantly inhibit dopamine reuptake	~1400 nM	does not measurably inhibit serotonin uptake
CNCCCC1c2ccccc2C=Cc2ccccc21 [protriptyline]	2.6 and 1.4	–	–	–	–	–	–
